Key:
[1] = Breath test using 13C-amino acid in fed and fasted ZDF lean rats; details: 50 μmol/kg orally; for time for which the tendency (Δ^13C higher in fasted than in fed state) continued: expired air collected up to 60 minutes
Description: ZDF lean rats were placed in the fed/fasted state and the light-dark cycle as described above. 1-^13C-leucine, 1-^13C-alanine, or 1-^13C-glutamic acid (Cambridge Isotope Laboratories, Inc (Andover, Mass., USA)) dissolved in physiological saline was administered orally at 50 μmol/kg each (n=4 for each amino acid) at 13:00 of Day 2 in the fed state or 13:00 of Day 3 in the fasted state. Expired air samples were collected before the administration (0 minutes) and at several time points up to 60 minutes after the administration and Δ^13C (%) values were measured using a mass spectrometer for breath analysis (“ABCA” Sercon).

[2] = Breath test using 13C-alanine in ZDF fatty rats F1 and F2; details: fed, 50 μmol/kg orally, from the start of the administration
Description: ZDF fatty rats F1 and F2 mentioned above were placed in the light-dark cycle as described above. 1-^13C-alanine dissolved in physiological saline was administered orally at 50 μmol/kg. Expired air samples were collected before the administration (0 minutes) and at several time points up to 60 minutes after the administration and Δ^13C (%) values were measured using a mass spectrometer for breath analysis (“ABCA” Sercon).

[3] = ZDF fatty rats (diabetes model), fed, 50 μmol/kg orally, from the start of the administration to the end of the measurement (60 minutes)
Description: ZDF fatty rats F1, F2, and F3 mentioned above were placed in the light-dark cycle as described above. 1-^13C-glutamic acid dissolved in physiological saline was administered orally at 50 μmol/kg. Expired air samples were collected before the administration (0 minutes) and at several time points up to 60 minutes after the administration and Δ^13C (%) values were measured using a mass spectrometer for breath analysis (“ABCA” Sercon).

| Compound | time for which the tendency (Δ^13C higher in fasted than in fed state) continued [1] | time after the administration up to which Δ^13C was higher in F1 rat than in F2 rat [2] | Δ^13C (%) values of expired air, fasted state compared with fed state ([1]; 10 minutes after the administration, n=4 for each amino acid) | Δ^13C (%) values of expired air, F1 rat (suspected sarcopenia) compared with F2 and F3 rats [3] |
| --- | --- | --- | --- | --- |
| CC(C)C[C@H](N)[13C](=O)O [1-^13C-leucine] | about 45 minutes | – | – | – |
| C[C@H](N)[13C](=O)O [1-^13C-alanine] | ~20 min | about 50 minutes | – | – |
| N[C@@H](CCC(=O)O)[13C](=O)O [1-^13C-glutamic acid] | ~40 min | – | higher in the fasted state than in the fed state | higher in F1 rat than in F2 and F3 rats |

Reference: patent US20200182856A1, “Method of Evaluating Nutriture” (OTSUKA PHARMACEUTICAL CO., LTD., priority 2016, published 2020)
